Experimental data published in article PMC12079500, “An Intracellular Peptide Library Screening Platform Identifies Irreversible Covalent Transcription Factor Inhibitors” (Advanced Science, 2025).
*1 amine or outer side, *2 acyl side, *3 side chain or, on linkers, in order; H or OH if unused. Where a SMILES comes first, the peptide text is derived from it. Bridges are numbered along the chain shown (N, C = ends). [ ]: non-standard residue; d: D form. The star is where a group is joined. Met(S-mXyl) = C[S+](CC[C@H](N[*:1])C(=O)[*:2])Cc1cccc(C[*:3])c1; 5FAM = O=C1OC2(c3ccc(O)cc3Oc3cc(O)ccc32)c2ccc(C(=O)*)cc21

Tests used:
SK-MEL-28 cells [1] = test: Cell imaging of FAM-peptide uptake; type: cell-based, human; conditions: SK-MEL-28, 10 and 30 µM, 6 h, 37 °C, fixed, DAPI counterstain, fluorescence microscopy
Protocol: Cell imaging: Cells were seeded at 40,000 cells per well in a […] and incubated for 24 hours before treatment with vehicle (1% DMSO in water) or peptide for 6 hours. The media was removed and the cells were washed 3x with PBS. 1 mL of paraformaldehyde (80 mg/mL in PBS) was added and incubated at room temperature for 10 minutes. The paraformaldehyde was removed and fixed cells were washed with 3x PBS. 500 µL of DAPI (1 µg/mL) was then added and incubated at room temperature for 5 minutes following by a 3x PBS wash. Cells were imaged using an Evos FL digital inverted fluorescence microscope using brightfield and both GFP (for the FAM label) and DAPI fluorescence filters.

cJun = cJun (Homo sapiens, UniProt P05412); test: Western blot of cJun levels in cell lysate after peptide addition; type: biochemical; set-up: endogenous in cells; host or cells: SK-MEL-28; conditions: SK-MEL-28 cell lysate with protease inhibitor cocktail, 30 µM peptide, 37 °C, 5 mM TCEP, pH 7.4, western blot over time
Protocol: Figure S25 – cJun protein levels in SK-MEL-28 cell lysate (with the addition of Roche cOmplete protease inhibitor cocktail) upon addition of 30 µM FAM-HW33-NLSTAT, determined over time by western blot. Cells were lysed by sonication in 20 mM KP, 150 mM NaCl, 5 mM TCEP, pH 7.4 and incubated at 37°C after peptide addition. Uncropped blots are also shown.

SK-MEL-28 cells [2] = test: MTT cell viability assay; type: cell-based, human; conditions: SK-MEL-28, 30 µM
Protocol: Cell viability assay: Cells were seeded at 15,000 cells per well in a 96-well plate and incubated for 24 hours before treatment with vehicle (1% DMSO in water) or peptide for 6 or 24 hours. The media was removed and the cells were washed twice with PBS before 50 µL of MTT (1 mg/mL in PBS, Merck) was added and incubated at 37°C for 30 minutes. The MTT solution was removed and 100 µL isopropanol was added to each well and rocked at room temperature for 5 minutes. Absorbance at 595 nm was measured using a Clariostar plate reader. Unless otherwise stated, all data are reported as an average of three independent biological experiments, with each data point determined in triplicate (i.e. 9 measurements) and reported as the mean with errors given as one standard deviation. For data with one independent measurement, each data point was determined in triplicate i.e. 3 measurements and reported as the mean with errors given as one standard deviation.

cJun/TRE DNA = molecular target: T1, cJun/TRE DNA (Homo sapiens, UniProt P05412); test: CD cJun/TRE DNA antagonism assay (TRE DNA signal at 281 nm); type: biochemical
T1 construct: LC-MS analysis of the cJun bZIP domain; made in house
Source text: CD antagonism experiments were next carried out, as previously described,^[ [13], [18] ^] whereby the structure of a TRE DNA duplex was monitored by following a peak at 281 nm, which shifts upon binding to cJun. The introduction of antagonist to the sample causes the peak to shift back to its unbound signal in a dose‐dependent manner as the cJun is sequestered, leaving unbound DNA in its original structure (Figure S9, Supporting Information). As there is no protein absorbance in this region of the CD spectrum, this measures DNA structure only and produces a simple readout of the proportion of free/cJun‐bound DNA at different antagonist concentrations. By fitting these plots to a Hill equation (OriginPro), IC50 values for HW1, HW29, and HW31 were determined in both reducing and oxidizing conditions (Table S1, Supporting Information; Figure 3C).
Circular dichroism (CD): An Applied Photophysics Chirascan was used for CD measurements, with a 200 µL sample in a 1 mm path length CD cell. Protein/DNA samples were suspended in 20 mM potassium phosphate,150 mM potassium fluoride at pH 7.4 with or without 5 mM TCEP. cJun was added to TRE DNA (5’-[…], Merck) before addition of antagonist peptide and these samples were equilibrated for 30 minutes before measurement.^[13] For full spectra, three scans between 190 and 260 nm (265-320 nm for DNA binding experiments) were collected with a bandwidth of 1 nm and data sampled at a rate of 0.5 s^-1. These scans were averaged and converted to molar residue ellipticities (MRE). Thermal denaturation experiments were performed by measuring the ellipticity at 222 nm over a 1 to 95°C gradient at 1°C increments. Post-melt scans at 20°C confirmed the transitions were reversible as they overlaid within 5% of the pre-melt scan. The resulting thermal denaturation curves were converted to MRE and fitted to a two-state model, derived via modification of the Gibbs–Helmholtz equation to determine the melting temperature (Tm) ^[26].

CREB1 = CREB1 (Homo sapiens, UniProt P16220); test: Selectivity: incubation with CREB1 monitored by SDS-PAGE; type: biochemical; conditions: HW33 40 µM + CREB1 20 µM, 24 h
Protocol: The selectivity of this reaction, which is highly proximity‐driven, was first investigated by incubating HW33 (40 µM) with CREB1 (20 µM), a closely related bZIP‐containing TF that contains a Cys residue at the same position within the bZIP domain as cJun. Moreover, CREB1 contains two additional Cys residues located within the LZ domain that are not found within cJun. […] To further investigate HW33 selectivity for cJun, a reaction was next undertaken in SK‐MEL‐28 human melanoma cell lysate using FAM‐HW33, in which the N‐terminal acetyl group of HW33 was replaced with carboxyfluorescein to allow for peptide detection (Figure S17, Supporting Information). Samples containing cJun bZIP (20 µM) and FAM‐HW33 (20 µM) were incubated with or without lysate (10 µg) at 37 °C for 4 h before analysis by SDS‐PAGE (Figure 4E). […]
Covalent conjugation assays: Initial tests were performed by incubation of HW32 and HW33 (40 µM) with cJun bZIP (20 µM) in 50 mM potassium phosphate butter, 150 mM NaCl, pH 7.4 at 37°C, shaking at 450 rpm. […] The samples were analysed by LC-MS on a Luna C18(2) column (5-μm particle size, 100 Å pore size, 150 × 4.6 mm; Phenomenex). The % occupancy was determined by the ratio of conjugated cJun over total cJun as determined by the area under the peaks in the chromatogram measured at a 215 nm wavelength, with their identity confirmed by ESI-MS. […]

cJun/FAM-TRE DNA = molecular target: T2, cJun/FAM-TRE DNA (Homo sapiens, UniProt P05412); test: Fluorescence polarisation cJun/FAM-TRE DNA antagonism time course; type: biochemical; conditions: 10 nM FAM-TRE, 625 nM cJun, peptide 10000-20 nM, 5 mM TCEP, pH 7.4; quadruplicate
T2 construct: LC-MS analysis of the cJun bZIP domain; made in house
T2 sequence (P05412 252-315 limits assumed): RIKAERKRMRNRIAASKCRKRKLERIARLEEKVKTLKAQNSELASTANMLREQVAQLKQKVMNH

T1 sequence (P05412 252-315 limits assumed): as above
Sequence of CREB1 (P16220 whole entry, species assumed, the tested form may be a part): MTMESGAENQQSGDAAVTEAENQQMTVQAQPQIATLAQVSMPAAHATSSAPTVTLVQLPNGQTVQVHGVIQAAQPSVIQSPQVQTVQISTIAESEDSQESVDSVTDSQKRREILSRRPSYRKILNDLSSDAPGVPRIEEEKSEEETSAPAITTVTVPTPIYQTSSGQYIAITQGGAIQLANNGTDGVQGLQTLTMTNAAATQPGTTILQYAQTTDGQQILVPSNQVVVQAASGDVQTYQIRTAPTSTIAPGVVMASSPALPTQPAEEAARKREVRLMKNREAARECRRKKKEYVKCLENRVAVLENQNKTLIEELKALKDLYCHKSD
Sequence of cJun (P05412 whole entry): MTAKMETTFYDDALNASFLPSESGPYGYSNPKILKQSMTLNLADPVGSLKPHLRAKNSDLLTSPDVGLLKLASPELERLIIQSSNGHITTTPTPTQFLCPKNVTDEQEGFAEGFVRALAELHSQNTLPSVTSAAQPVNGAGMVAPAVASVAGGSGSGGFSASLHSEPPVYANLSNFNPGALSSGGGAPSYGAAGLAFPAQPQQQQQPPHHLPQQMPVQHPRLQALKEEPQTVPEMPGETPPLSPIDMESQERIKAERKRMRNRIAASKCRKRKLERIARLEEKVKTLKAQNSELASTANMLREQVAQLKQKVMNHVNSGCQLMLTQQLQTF

Molecule	Cellular uptake (FAM fluorescence within cells) (SK-MEL-28 cells [1])	cJun depletion in cell lysate (cJun)	Fold larger reduction in cell viability relative to HW1 (SK-MEL-28 cells [2]) [x]	Fold increase in antagonism over the 4 h time course (cJun/TRE DNA; CD antagonism time course) [fold]	Time dependence of CD antagonism compared with HW1 (cJun/TRE DNA; IC50 plotted over time)	Conjugation with CREB1 (CREB1)	Time dependence of FP antagonism compared with HW1 (cJun/FAM-TRE DNA)
5FAM-E[Met(S-mXyl)]EELCVEEDVLEEEIEQLEERNYALRKEIKDLQDQPKKKRKVYGRKKRRQRRR-NH2 (thioether 2-6; lactam 31-35) [FAM-HW33-NLSTAT]	FAM fluorescence was observed within the cells	cJun depletion effect was also observed in cell lysate	2.2	–	–	–	–
CC[C@H](C)[C@H](NC(=O)[C@H](CCC(=O)O)NC(=O)[C@H](CCCCN)NC(=O)[C@H](CCCNC(=N)N)NC(=O)[C@H](CC(C)C)NC(=O)[C@H](C)NC(=O)[C@H](Cc1ccc(O)cc1)NC(=O)[C@H](CC(N)=O)NC(=O)[C@H](CCCNC(=N)N)NC(=O)[C@H](CCC(=O)O)NC(=O)[C@H](CCC(=O)O)NC(=O)[C@H](CC(C)C)NC(=O)[C@H](CCC(N)=O)NC(=O)[C@H](CCC(=O)O)NC(=O)[C@@H](NC(=O)[C@H](CCC(=O)O)NC(=O)[C@H](CCC(=O)O)NC(=O)[C@H](CCC(=O)O)NC(=O)[C@H](CC(C)C)NC(=O)[C@@H](NC(=O)[C@H](CC(=O)O)NC(=O)[C@H](CCC(=O)O)NC(=O)[C@H](CCC(=O)O)NC(=O)[C@@H](NC(=O)[C@@H]1CSCc2cccc(c2)C[S+](C)CC[C@H](NC(=O)[C@H](CCC(=O)O)NC(C)=O)C(=O)N[C@@H](CCC(=O)O)C(=O)N[C@@H](CCC(=O)O)C(=O)N[C@@H](CC(C)C)C(=O)N1)C(C)C)C(C)C)[C@@H](C)CC)C(=O)N[C@H]1CCCCNC(=O)C[C@@H](C(=O)N[C@@H](CCC(N)=O)C(N)=O)NC(=O)[C@H](CCC(N)=O)NC(=O)[C@H](CC(C)C)NC(=O)[C@H](CC(=O)O)NC1=O (stereo partly shown) [HW33] (Ac-E[Met(S-mXyl)]EELCVEEDVLEEEIEQLEERNYALRKEIKDLQDQ-NH2; thioether 2-6; lactam 31-35)	–	–	–	5	improved antagonism over HW1 after 60 min	no conjugation observed	improved antagonism over HW1 after 240 minutes
